Results: patent US9694016B2 (Novartis AG, priority 2013, dated 2017)

Biological target: b-Raf (V600E) (Homo sapiens (Human), UniProt P15056, V600E)
Details: read-out: b-Raf IC-50; AlphaScreen, 60 min pre-incubation, 3 hours reaction

b-Raf (V600E), sequence (P15056 whole entry V600E): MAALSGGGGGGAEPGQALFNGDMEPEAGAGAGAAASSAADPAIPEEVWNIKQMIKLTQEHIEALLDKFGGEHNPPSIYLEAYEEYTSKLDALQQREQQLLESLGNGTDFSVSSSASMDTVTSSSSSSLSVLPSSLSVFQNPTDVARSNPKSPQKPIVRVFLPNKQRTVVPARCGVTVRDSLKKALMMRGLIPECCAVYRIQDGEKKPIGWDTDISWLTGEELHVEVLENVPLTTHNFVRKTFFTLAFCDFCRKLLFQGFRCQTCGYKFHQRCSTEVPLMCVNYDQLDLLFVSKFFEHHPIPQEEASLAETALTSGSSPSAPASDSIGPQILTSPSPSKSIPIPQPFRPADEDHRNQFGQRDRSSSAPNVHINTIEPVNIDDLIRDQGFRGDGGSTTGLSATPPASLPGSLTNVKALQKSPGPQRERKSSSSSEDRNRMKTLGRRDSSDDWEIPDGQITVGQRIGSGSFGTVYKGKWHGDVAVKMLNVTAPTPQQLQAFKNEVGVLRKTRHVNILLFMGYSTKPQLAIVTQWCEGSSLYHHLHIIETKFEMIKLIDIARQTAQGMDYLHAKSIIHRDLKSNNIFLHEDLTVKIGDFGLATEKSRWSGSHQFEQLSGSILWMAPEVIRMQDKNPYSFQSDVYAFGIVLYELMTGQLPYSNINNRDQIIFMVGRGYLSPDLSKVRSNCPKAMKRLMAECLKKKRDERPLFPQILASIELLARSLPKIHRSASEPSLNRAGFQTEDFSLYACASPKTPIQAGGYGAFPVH

IC50 [nM]	Structure (SMILES)
3.5	CCOc1nnc(-c2cc(NC(=O)c3ccnc(C(F)(F)CC)c3)cnc2C)cc1N1CCOCC1 [Example 617, 2-(1,1-difluoropropyl)-N-(5-(6-ethoxy-5-morpholinopyridazin-3-yl)-6-methylpyridin-3-yl)isonicotinamide]
1.9	Cc1ccc(NC(=O)c2ccnc(C(C)(F)F)c2)cc1-c1cc(N2CCOCC2)nc(N2CC(O)C2)n1 [Example 772, 2-(1,1-difluoroethyl)-N-(3-(2-(3-hydroxyazetidin-1-yl)-6-morpholinopyrimidin-4-yl)-4-methylphenyl)isonicotinamide]
4.6	CCN1CCN(c2cc(C(=O)Nc3ccc(C)c(-c4cc(N5CCOCC5)c(=O)n(C)n4)c3)cc(C(F)(F)F)c2)CC1 [Example 649, 3-(4-ethylpiperazin-1-yl)-N-(4-methyl-3-(1-methyl-5-morpholino-6-oxo-1,6-dihydropyridazin-3-yl)phenyl)-5-(trifluoromethyl)benzamide]
0.2	Cc1ccc(NC(=O)c2cccc(C(F)(F)F)c2)cc1-c1nc(N2CCOCC2)c2sccc2n1 [Example 829, N-(4-methyl-3-(4-morpholinothieno[3,2-d]pyrimidin-2-yl)phenyl)-3-(trifluoromethyl)benzamide]
11.2	Cc1ncc(NC(=O)c2ccnc(C3(C#N)CC3)c2)cc1-c1cc(N2CCOCC2)c(=O)n(C)n1 [Example 683, 2-(1-cyanocyclopropyl)-N-(6-methyl-5-(1-methyl-5-morpholino-6-oxo-1,6-dihydropyridazin-3-yl)pyridin-3-yl)isonicotinamide]
22.4	Cc1ncc(NC(=O)c2ccnc(C(C)(C)C#N)c2)cc1-c1cc(N2CCOCC2)nc(NC(C)(C)CO)n1 [Example 750, 2-(2-cyanopropan-2-yl)-N-(5-(2-((1-hydroxy-2-methylpropan-2-yl)amino)-6-morpholinopyrimidin-4-yl)-6-methylpyridin-3-yl)isonicotinamide]
4.4	CCNc1nc(-c2cc(C(=O)Nc3ccccc3)ccc2C)cc(N2CCOCC2)n1 [Example 731, 3-(2-(ethylamino)-6-morpholinopyrimidin-4-yl)-4-methyl-N-phenylbenzamide]
1.8	Cc1ccc(NC(=O)c2cnnc(C(C)(C)C#N)c2)cc1-c1cc(N2CCOCC2)n2nccc2n1 [Example 795, 6-(2-cyanopropan-2-yl)-N-(4-methyl-3-(7-morpholinopyrazolo[1,5-a]pyrimidin-5-yl)phenyl)pyridazine-4-carboxamide]
2.4	Cn1c(N2CCOCC2)cc(-c2cc(NC(=O)c3ccnc(C(C)(F)F)c3)cnc2Cl)cc1=O [Example 513, N-(2-chloro-1′-methyl-6′-morpholino-2′-oxo-1′,2′-dihydro-[3,4′-bipyridin]-5-yl)-2-(1,1-difluoroethyl)isonicotinamide]
4	CCNc1nc(-c2cc(NC(=O)c3ccccc3)ccc2C)cc(N2CCOCC2)n1 [Example 695, N-(3-(2-(ethylamino)-6-morpholinopyrimidin-4-yl)-4-methylphenyl)benzamide]

Structure (SMILES)	IC50 [nM]
Cc1ccc(NC(=O)c2cccc(C(F)(F)F)c2)cc1-c1cc(N2CC3CC(C2)O3)c(=O)n(C)c1 [Example 464, N-(3-(5-(6-oxa-3-azabicyclo[3.1.1]heptan-3-yl)-1-methyl-6-oxo-1,6-dihydropyridin-3-yl)-4-methylphenyl)-3-(trifluoromethyl)benzamide]	16.8

Same assay, conditions: read-out: b-Raf IC-50; AlphaScreen, 60 min pre-incubation, reaction 3 hours at room temperature

IC50 [nM]	Structure (SMILES)
3700	Cc1ccc(NC(=O)c2ccnc(C(C)(C)C#N)c2)cc1-c1nc2c(c(N3CCOCC3)n1)CCNC2 [Example 865, 2-(2-cyanopropan-2-yl)-N-(4-methyl-3-(4-morpholino-5,6,7,8-tetrahydropyrido[3,4-d]pyrimidin-2-yl)phenyl)isonicotinamide]
1.25	Cc1ccc(NC(=O)c2ccnc(C(C)(C)C#N)c2)cc1-c1cc(OC2CCOCC2)nc(N2CCOCC2)c1 [Example 1152, 2-(2-cyanopropan-2-yl)-N-(4-methyl-3-(2-morpholino-6-((tetrahydro-2H-pyran-4-yl)oxy)pyridin-4-yl)phenyl)isonicotinamide]
3.95	Cc1ccc(NC(=O)c2cnnc(C(F)(F)F)c2)cc1-c1cc(NCCO)nc(N2CCOCC2)c1 [Example 1047, N-(3-(2-((2-hydroxyethyl)amino)-6-morpholinopyridin-4-yl)-4-methylphenyl)-6-(trifluoromethyl)pyridazine-4-carboxamide]
1.99	Cc1ncc(NC(=O)c2ccnc(C(C)(F)F)c2)cc1-c1cnc(OC(F)F)c(N2CCOCC2)c1 [Example 980, 2-(1,1-difluoroethyl)-N-(6′-(difluoromethoxy)-2-methyl-5′-morpholino-[3,3′-bipyridin]-5-yl)isonicotinamide]
20.7	CCn1cc(C(=O)Nc2cnc(C)c(-c3cc(N4CCOCC4)nc(N4CC(O)C4)c3)c2)cc(C(F)(F)F)c1=O [Example 1086, 1-ethyl-N-(2′-(3-hydroxyazetidin-1-yl)-2-methyl-6′-morpholino-[3,4′-bipyridin]-5-yl)-6-oxo-5-(trifluoromethyl)-1,6-dihydropyridine-3-carboxamide]
4.12	COC(=O)NC[C@@H](C)Oc1ncc(-c2cc(NC(=O)c3cccc(C(F)(F)F)c3)cnc2C)cc1N1CCOCC1 [Example 1003, (R)-methyl(2-((2′-methyl-5-morpholino-5′-(3-(trifluoromethyl)benzamido)-[3,3′-bipyridin]-6-yl)oxy)propyl)carbamate]
3.33	Cc1ncc(NC(=O)c2ccnc(C(C)(C)F)c2)cc1-c1cnc(OC(C)C)c(N2CCOCC2)c1 [Example 953, 2-(2-fluoropropan-2-yl)-N-(6′-isopropoxy-2-methyl-5′-morpholino-[3,3′-bipyridin]-5-yl)isonicotinamide]
3.31	Cc1ncc(NC(=O)c2ccnc(C(F)F)c2)cc1-c1cc(N2CCOCC2)nc(N2CCOCC2)c1 [Example 1122, 2-(difluoromethyl)-N-(2-methyl-2′,6′-dimorpholino-[3,4′-bipyridin]-5-yl)isonicotinamide]
70.6	Cc1ccc(NC(=O)c2cnnc(C(C)(C)C#N)c2)cc1-c1cc(NCCO)nc(N2CCOCC2)c1F [Example 1012, 6-(2-cyanopropan-2-yl)-N-(3-(3-fluoro-6-((2-hydroxyethyl)amino)-2-morpholinopyridin-4-yl)-4-methylphenyl)pyridazine-4-carboxamide]
1.55	Cc1ccc(NC(=O)c2cnnc(C3CC3)c2)cc1-c1cc(NCCO)nc(N2CCOCC2)c1 [Example 1048, 6-cyclopropyl-N-(3-(2-((2-hydroxyethyl)amino)-6-morpholinopyridin-4-yl)-4-methylphenyl)pyridazine-4-carboxamide]
3.13	CCOc1cc(-c2cc(NC(=O)c3ccnc(C4CC4)c3)cnc2C)cc(N2CCOCC2)n1 [Example 1149, 2-cyclopropyl-N-(2′-ethoxy-2-methyl-6′-morpholino-[3,4′-bipyridin]-5-yl)isonicotinamide]
1.63	Cc1ncc(NC(=O)c2ccnc(C(F)(F)F)c2)cc1-c1cc(N2CCOCC2)nc(N2CCOCC2)c1 [Example 1120, N-(2-methyl-2′,6′-dimorpholino-[3,4′-bipyridin]-5-yl)-2-(trifluoromethyl)isonicotinamide]
1.3	Cc1ccc(NC(=O)c2ccnc(C(C)(F)F)c2)cc1-c1cc(C2COCCO2)nc(N2CCOCC2)c1 (stereo not drawn) [Example 1145]

Same assay, conditions: read-out: b-Raf IC-50; Table 2; AlphaScreen, 3 hours reaction

IC50 [nM]	Structure (SMILES)
4	CCN1CCN(c2cc(C(=O)Nc3ccc(C)c(-c4cc(N5CCOCC5)nc(N5CCOCC5)n4)c3)cc(C(F)(F)F)c2)CC1 [Example 21, N-(3-(2,6-dimorpholinopyrimidin-4-yl)-4-methylphenyl)-3-(4-ethylpiperazin-1-yl)-5-(trifluoromethyl)benzamide]
5.6	CCOc1ncc(-c2cc(NC(=O)c3ccnc(C4COC4)c3)cnc2C)cc1N1CCOCC1 [Example 255, N-(6′-ethoxy-2-methyl-5′-morpholino-[3,3′-bipyridin]-5-yl)-2-(oxetan-3-yl)isonicotinamide]
200	Cc1nn(C(C)C)cc1C(=O)Nc1cnc(C)c(-c2cc(N3CCOCC3)c(=O)n(C)c2)c1 [Example 375, N-(1′,2-dimethyl-5′-morpholino-6′-oxo-1′,6′-dihydro-[3,3′-bipyridin]-5-yl)-1-isopropyl-3-methyl-1H-pyrazole-4-carboxamide]
4.8	Cc1ccc(NC(=O)c2ccnc(C(C)(C)C#N)c2)cc1-c1cc(N2CCOCC2)ncn1 [Example 2, 2-(2-cyanopropan-2-yl)-N-(4-methyl-3-(6-morpholinopyrimidin-4-yl)phenyl)isonicotinamide]
1.9	Cc1ccc(NC(=O)c2ccnc(S(C)(=O)=O)c2)cc1-c1ccnc(N2CCOCC2)c1 [Example 73, N-(4-methyl-3-(2-morpholinopyridin-4-yl)phenyl)-2-(methylsulfonyl)isonicotinamide]
8.3	CCOc1ncc(-c2cc(NC(=O)c3cc(CN(C)C)cc(C(F)(F)F)c3)cnc2C)cc1N1CCOCC1 [Example 258, 3-((dimethylamino)methyl)-N-(6′-ethoxy-2-methyl-5′-morpholino-[3,3′-bipyridin]-5-yl)-5-(trifluoromethyl)benzamide]
5.5	Cc1ccc(NC(=O)c2cccc(C(F)F)c2)cc1-c1cc(N2CCOCC2)c(=O)n(CCC#N)c1 [Example 336, N-(3-(1-(2-cyanoethyl)-5-morpholino-6-oxo-1,6-dihydropyridin-3-yl)-4-methylphenyl)-3-(difluoromethyl)benzamide]
5.4	Cc1ncc(NC(=O)c2ccnc(C(F)(F)F)c2)cc1-c1cc(N2CCOCC2)c(=O)n(C)c1 [Example 390, N-(1′,2-dimethyl-5′-morpholino-6′-oxo-1′,6′-dihydro-[3,3′-bipyridin]-5-yl)-2-(trifluoromethyl)isonicotinamide]
1.1	CCOc1ncc(-c2cc(NC(=O)c3ccnc(C(F)F)c3)cnc2C)cc1N1CCOCC1 [Example 247, 2-(difluoromethyl)-N-(6′-ethoxy-2-methyl-5′-morpholino-[3,3′-bipyridin]-5-yl)isonicotinamide]
